Laboratory results from patent US20240252677A1, “ONE-COMPONENT DELIVERY SYSTEM FOR NUCLEIC ACIDS” (The Trustees of the University of Pennsylvania, priority 2021, published 2024).

How the values were obtained:
[1] = Stability of DNPs by DLS after storage at 5° C.; assay type: physicochemical; design: key to Original size distribution type (DLS curve) / Size distribution type (DLS curve): U: DLS curve showed unimodal size distribution; B: DLS curve showed bimodal size distribution; M: DLS curve showed multimodal size distribution; details: for pH Sample: DNPs: IAJD 4.0 mg/mL + Luc-mRNA 0.1 mg/mL, injection in acetate buffer pH 4.00; for PDI / Size (d, nm) / Original size distribution type (DLS curve): IAJD 4.0 mg/mL + Luc-mRNA 0.1 mg/mL; for PDI / Size (d, nm): acetate buffer; for Original size distribution type (DLS curve): before storage, acetate buffer pH 4.00
Method: (§1) The stability of the DNPs as assayed by DLS. All the samples are prepared in acetate buffer. The stabilities of the constructs were ranked: Excellent (in bold)—the original sizes and distribution remains almost the same after storage; Good—the original relatively big sizes became smaller or broad size distribution became narrower; Not stable—the original relatively big sizes or broad size distribution remained almost the similar level, or the original relatively small sizes became bigger or narrow size distribution became broader.

[2] = Stability of DNPs by DLS after storage at 5° C.; assay type: physicochemical; design: key: Excellent: the original sizes and distribution types remained almost the same after storage; Good: the original sizes and distribution types changed slightly (size difference was less than 100 nm) or the original size remained almost the same but the DLS curve showed more size distributions after storage
Method: as §1

HEK293T cells = experiment: In vitro Luc-mRNA transfection, luciferase luminescence expression in HEK293T cells; assay type: cell-based, human; design: unit not given here; details: n=3
Method: In Vitro Transfection Activity of DNPs in Human Embrionic Kidney (HEK) 293T Cells: HEK293T cells were seeded into 96-well plates (20,000 cells/well/200 μL) and cultured for 24 h at 37° C. in 5% CO2 complete cell culture media. Screening experiments were performed with nonoptimized DNPs containing naked nucleoside-modified mRNA (Karikó, et al., Immunity 2005, 23, 165-175; Pardi, et al., Methods Mol. Biol. 2013, 969, 29-42), of molar mass 664,341 encoding firefly luciferase (mRNA-Luc). A constant concentration of mRNA-Luc of 125 ng/well was used. The transIT (TransIT-mRNA transfection Kit from Mirus Bio) and MC3-based LNPs (MC3: DLin-MC3-DMA, which is the FDA approved LNP for mRNA delivery) were used as positive controls for cell transfection at a concentration of mRNA-Luc of 125 ng/well, identical to that of the tested DNPs. Subsequently cells were cultured for 24 h, the medium was aspirated under reduced pressure by a glass pipette and cells were lysed with 30 μL/well of cell culture lysis reagent (Promega). The luminescence intensity corresponding to the luciferase protein expressed was characterized and analyzed.
In vitro mRNA Delivery: Human embryonic kidney (HEK) 293T cells (American Type Culture Collection) were cultured in Dulbecco's modified Eagle's medium (DMEM) supplemented with 10% inactivated fetal bovine serum (FBS) (Gemini Bio-Products), 2 mM L-glutamine and 100 U/mL penicillin/streptomycin (Life Technologies) (complete medium). For in vitro screening experiments, HEK293T cells were seeded into 96-well plates (20,000 cells/well/200 μL) and cultured for 24 h in at 37° C. and 5% CO2 in complete media. Cell were transfected with IAJDs with encapsulated naked nucleoside-modified mRNA encoding firefly luciferase (mRNA-Luc) with fixed concentration of mRNA-Luc, 125 ng per well. The transIT (TransIT®-mRNA Transfection Kit, Mirus Bio) was used as a positive control for cell transfection, accordingly per manufacturer protocol and added to cells at the concentration of mRNA-Luc, 125 ng per well, the same as for tested particles. Cells were further cultured for 24 h, then medium was aspirated, and cells were lysed with 30 μL/well of cell culture lysis reagent (Promega). For the characterization of luminescence intensity, 2.5 μL of the lysed cells was mixed with 10 μL of luciferase assay substrate and luminescence was analyzed using a MiniLumat LB 9506 luminometer (Berthold/EG&G; Wallac).
Luminescence characterization for in vitro transfection experiments was performed by determining the luminescence intensity for in vitro Luc-mRNA transfection experiments using a MiniLumat LB 9506 luminometer (Berthold/EG&G; Wallac).
For in vitro Luc-mRNA transfection screening experiments, human embryonic kidney 293 cells (HEK 293) were seeded into 96-well plates (20,000 cells/well/200 μL) and cultured for 18-20 hours at 37° C., 5% CO2 in complete Dulbecco's modified Eagle's medium (DMEM) supplemented with 2 mM L-glutamine (Life Technologies), 100 U/mL penicillin/streptomycin (Invitrogen) and 10% fetal bovine serum (FBS, Gemini Bio-Products). Cells were transfected with DNPs with encapsulated naked nucleoside-modified mRNA encoding firefly luciferase (Luc-mRNA) at constant concentration of Luc-mRNA, 125 ng per well. Luc-mRNA complexed with TransIT (TransIT®-mRNA Transfection Kit, Mirus Bio) or encapsulated in FDA approved MC3-based LNPs were used as positive controls for cell transfection, at the concentration of Luc-mRNA of 125 ng per well, the same as for tested DNPs. After transfection cells were further cultured at 37° C., 5% CO2 for 18-20 hours, then medium was aspirated and cells were lysed with luciferase cell culture lysis reagent (30 μL/well) (Promega, Madison, WI). […]

BALB/c mice = experiment: In vivo mRNA delivery in mice with DNPs, whole-body bioluminescence imaging (IVIS)
Method: (§2) The exposure time was 1 min.
Luminescence characterization for in vivo transfection experiments employed bioluminescence imaging with an IVIS Spectrum imaging system (PerkinElmer, Waltham, MA). Mice were anesthetized with 3% of isoflurane (Piramal Healthcare Limited) and intraperitoneally (i.p.) administered with D-luciferin (Regis Technologies) at a dose of 150 mg/kg of body weight. Ten minutes post administration of D-luciferin, mice were placed on the imaging platform while being maintained on isoflurane via a nose cone and imaged using an exposure time of 60 seconds. […] To quantify luminescent flux, an oval ROI was placed over each organ of interest and analyzed.
(§3) Tissue luminescence signal was measured on the IVIS imaging system using an exposure time of 60 seconds using medium binning (binning=8) to ensure that the signal obtained was within operative detection range. […] Bioluminescence imaging was performed as described above.
Luminescence Characterization for In Vivo Transfection Experiments: bioluminescence imaging was performed with an IVIS Spectrum imaging system (PerkinElmer, Waltham, MA).

liver = experiment: In vivo mRNA delivery, IVIS imaging of organs: liver; design: species or system mice; key to Organs with luminescence: liver: strong: Strong meant the luminescence intensity in that organ was relatively high, compared to other organs; weak: Weak meant the luminescence intensity in that organ was relatively low, compared to other organs; details: for Organs with luminescence: liver (weak/strong): Table 14; for Organs with luminescence: liver: Table 17, mice, IVIS, 4-6 h after injection, intensity relative to other organs
Method: as §2, §3
Tissue luminescence signal was measured on the IVIS imaging system using a certain exposure time (60, 30 or 15 seconds) and medium binning (binning=8) to ensure that the signal obtained was within operative detection range.

[3] = Table 16, HEK 293T cells, 125 ng/well
[4] = HEK293T cells, Luc-mRNA 125 ng/well

| SMILES | In vivo activity (total flux, p/s) (BALB/c mice; Table 19, nonsymmetric IAJDs) | Luminescence (HEK293T cells; [4]) | Organs with luminescence: liver (weak/strong) (liver; imaging 6 h after injection) | Organs with luminescence: liver (liver) | further results |
| --- | --- | --- | --- | --- | --- |
| CCCCCCCCCCCCCCOc1cc(CNC(=O)CCCN2CCN(C)CC2)cc(OCCCCCCCCCCC)c1 [IAJD 133, 4-(4-Methylpiperazin-1-yl)-N-(3-(tetradecyloxy)-5-(undecyloxy)benzyl)butanamide] | – | – | – | – | pH Sample [1]: 4.63; Size distribution type (DLS curve) ([1]; after 42 days at 5° C.): (B); PDI ([1]; after 42 days at 5° C.): 0.454; Size (d, nm) ([1]; after 42 days at 5° C.): 216 nm; Original size distribution type (DLS curve) [1]: (B); Ranking of stability ([2]; after 42 days at 5° C.): Excellent; Luminescence (HEK293T cells; [3]): 107,307 |
| CCCCCCCCCCCCCCOc1cc(COC(=O)CCCN2CCN(C)CC2)cc(OCCCCCCCCCCC)c1 [IAJD 105, 3-(Tetradecyloxy)-5-(undecyloxy)benzyl 4-(4-methylpiperazin-1-yl)butanoate] | 4.74 × 10^7 p/s | 85 | liver (strong), | liver (strong), | – |
| CCCCCCCCCCCCCCCCCCOc1cc(COC(=O)CCCN2CCN(C)CC2)cc(OCCCCCCCCCCC)c1 [IAJD 81, 3-(Octadecyloxy)-5-(undecyloxy)benzyl 4-(4-methylpiperazin-1-yl)butanoate] | 2.32 × 10^7 p/s | 206,161 | liver (strong), | liver (strong), | In vivo activity (total flux, p/s) (BALB/c mice; Table 20, nonsymmetric IAJDs and MC3-Luc-mRNA): 2.32 × 10^7 p/s |
| CCCCCCCCCCCCCCCCOc1cc(COC(=O)CCCN2CCN(C)CC2)cc(OCCCCCCCCCCC)c1 [IAJD 86, 3-(Hexadecyloxy)-5-(undecyloxy)benzyl 4-(4-methylpiperazin-1-yl)butanoate] | 4.73 × 10^7 p/s | 47,066 | – | liver (strong), | Organs with luminescence: liver (weak/strong) (liver; imaging 5 h after injection): liver (strong), |
| CCCCCCCCCCCCCCOc1cc(COC(=O)c2cc(OCCOCCOCCCC(=O)CCCN3CCCCC3)c(OCCOCCOCCOCc3ccccc3)c(OCCOCCOCCOC(=O)CCCN3CCCCC3)c2)cc(OCCCCCCCCCCC)c1 [IAJD 156] | – | – | – | – | pH Sample [1]: 4.82; Size distribution type (DLS curve) ([1]; after 19 days at 5° C.): (U); PDI ([1]; after 19 days at 5° C.): 0.242; Size (d, nm) ([1]; after 19 days at 5° C.): 78 nm; Original size distribution type (DLS curve) [1]: (U); Ranking of stability ([2]; after 19 days at 5° C.): Excellent; Luminescence (HEK293T cells; [3]): 59 |
| CCCCCCCCCCCCCCCCCCOc1cc(COC(=O)CCCN2CCN(C)CC2)cc(OCCCCCCCCCCCC)c1 [IAJD 107, 3-(Dodecyloxy)-5-(octadecyloxy)benzyl 4-(4-methylpiperazin-1-yl)butanoate] | 2.19 × 10^7 p/s | 93,745 | liver (weak), | liver (weak), | – |
| CCCCCCCCCCCCCCCCOc1cc(COC(=O)CCCN2CCN(C)CC2)cc(OCCCCCCCCCCCC)c1 [IAJD 106, 3-(Dodecyloxy)-5-(hexadecyloxy)benzyl 4-(4-methylpiperazin-1-yl)butanoate] | 3.48 × 10^7 p/s | 309 | liver (weak), | liver (weak), | – |
| CCCCCCCCCCCCCCOc1cc(COC(=O)CCCN2CCN(C)CC2)cc(OCCCCCCCCCCCCCC)c1 [IAJD 74, 3,5-Bis(tetradecyloxy)benzyl 4-(4-methylpiperazin-1-yl)butanoate] | – | 3,926 | – | – | Organs with luminescence: liver (weak/strong) (liver; imaging 5 h after injection): liver (weak), |
| CCCCC(CC)COC(=O)CCCCOc1cc(COC(=O)CCCN2CCN(CCO)CC2)cc(OCCCCC(=O)OCC(CC)CCCC)c1 (stereo not shown) [IAJD 95] | – | 153,564 | liver (weak), | – | – |
| CCCCC(CC)COc1cc(COC(=O)CCCN2CCN(CCO)CC2)cc(OCC(CC)CCCC)c1 (stereo not shown) [IAJD 87, 3,5-Bis((2-ethylhexyl)oxy)benzyl 4-(4-(2-hydroxyethyl)piperazin-1-yl)butanoate] | – | 33 | liver (weak), | – | – |
| CCCCCCCOC(=O)CCCCOc1cc(COC(=O)CCCN2CCN(C)CC2)cc(OCCCCC(=O)OCCCCCCC)c1 [IAJD 85, Diheptyl 5,5′-((5-(((4-(4-methylpiperazin-1-yl)butanoyl)oxy)methyl)-1,3-phenylene)bis(oxy)) dipentanoate] | – | 47,369 | – | – | Organs with luminescence: liver (weak/strong) (liver; imaging 5 h after injection): liver (weak), |
| CCCCCCCCCCOc1cc(COC(=O)CCCN2CCN(CCO)CC2)cc(OCCCCCCCCCC)c1 [IAJD 91, 3,5-Bis(decyloxy)benzyl 4-(4-(2-hydroxyethyl)piperazin-1-yl)butanoate] | – | 65,255 | liver (weak), | – | – |
| CCCCC(CC)COc1cc(COC(=O)CCCN2CCN(CCO)CC2)cc(OCC(CC)CCCC)c1OCC(CC)CCCC (stereo not shown) [IAJD 97, 3,4,5-Tris((2-ethylhexyl)oxy)benzyl 4-(4-(2-hydroxyethyl)piperazin-1-yl)butanoate] | – | 342,016 | – | – | Organs with luminescence: liver (weak/strong) (liver; imaging 5 h after injection): liver (weak), |
| CCCCCCCCCCCCOc1cc(COC(=O)CCCN2CCN(C)CC2)cc(OCCCCCCCCCCCC)c1OCCCCCCCCCCCC [IAJD 79, 3,4,5-Tris(dodecyloxy)benzyl 4-(4-methylpiperazin-1-yl)butanoate] | – | 27,615 | liver (weak), | – | – |
